Where a SMILES comes first, the peptide text is derived from it. [ ]: non-standard residue; d: D form.
Legend:
contact dermatitis = experiment: Inhibition of the contact dermatitis (oxazolone, method of Evans et al.); type: in vivo, male BALB/c (LATI) mice; settings: oxazolone-sensitized mice, 1.0 mg/kg i.p.; ear weight difference after 24 hours vs physiological saline control
Protocol: These investigations were carried out on male BALB/c (LATI) mice with 20 to 22 g body-weight by using the method of Evans et al. [Br. J. Pharmacol. 43, 403 (1971)]. The abdominal side of the animals were depilated, then the naked abdominal skin of each animal was sensitized by 0.1 ml of the oxazolone solution of 2% in sunflower oil. After 1 week, the mice were i.p. treated with an 1.0 mg/kg dose of the test substance (dissolved in physiological saline solution), then the right ear of the animals was directly treated with 10 μl of an acetone solution containing 2% oxazolone while their left ear was treated with 10 μl of acetone. After 24 hours, their ears were cut off and weighed. The difference between the weight of treated and untreated ears of the animals was compared with the difference observed at the animals treated with the test substance and treated only with physiological saline solution, respectively. The difference in the ear weight was considered to be proportional to the extent of the contact dermatitis, while the value measured at the animals not treated with the test substance was taken as control, the dermatitis-diminishing effect of the test substances was obtained as expressed in percentage shown in Table 4.

resting macrophages = experiment: Effect on the phagocytating capacity of resting macrophages; type: in vivo, male NZB (OLAC-SzKB) mice; settings: 1 mg/kg s.c. daily for 4 days; count of phagocytated opsonized yeast cells by peritoneal macrophages vs untreated animals
Protocol: These examinations were carried out on 6 months old male NZB (OLAC-SzKB) mice according to the method described in J. Immunopharmnacol. 4, 265 (1982-1983). The animals were treated daily with a 1 mg/kg subcutaneous (s.c.) dose of the test substances for 4 days. After bleeding the animals, their peritonea were washed with 8 ml of PBS buffer solution (pH 7.2) each containing 10 IU of heparin. The cell suspension washed out from the peritoneum was made free of the erythrocytes by shocking with distilled water, then washed 3 times with PBS buffer solution. The sedimentation between two washings was achieved by centrifuging at 1000 rpm for 5 minutes. Then, the concentration of each cell suspension was adjusted to 10^6 cell/ml and the suspension was settled for 30 minutes in a Boyden-chamber at 37° C. in an atmosphere containing 5% of carbon dioxide. Over the macrophages adhered to the glass wall, opsonized yeast was layered. After removing the non-phagocytated particles, those incorporated by the macrophages were counted in each cell. In Table 3, the percentage of decrease in the count of the phagocytated yeast cells is given in relation to the macrophages isolated from the untreated animals as control.

| Structure (SMILES) | Inhibition of the contact dermatitis % (contact dermatitis) [%] | Effect on the phagocytating capacity of resting macrophages % (resting macrophages) [%] |
| --- | --- | --- |
| N=C(N)NCCC[C@H](N)C(=O)NCCCC[C@H](N)C(=O)N[C@@H](CC(=O)O)C(=O)O [Compound 12, Lys(Arg)--Asp] (H-Lys(Arg)-Asp-OH) | -16 | -42 |
| N=C(N)NCCC[C@H](N)C(=O)NCCCC[C@H](N)C(=O)N[C@H](CC(=O)O)C(=O)O [Compound 13, Lys(Arg)--D--Asp] (H-Lys(Arg)-[dD]-OH) | – | -50 |

— patent publication US5008246A, “Novel peptides suppressing the function of the immune system, pharmaceutical compositions containing them and process for preparing same” (Richter Gedeon Vegyeszeti Gyar R. T., priority 1988, dated 1991)
